Experimental data published in patent US10188737B2, “Stabilized pharmaceutical composition” (ASTELLAS PHARMA INC., priority 2015, dated 2019).

Assays:
[1] = Water activity value of pharmaceutical additives, humidity conditions versus dry state; type: physicochemical; settings: N = 3; for Water activity value, Opened / Water activity value, Sealed: additive alone; for Water activity value, Opened: 25° C. and 60% RH (opened) for 3 days; for Water activity value, Sealed: in bottles at 25° C. for 3 days in the presence of a desiccant; for Water activity value, Difference: opened minus sealed
Experimental: A water activity meter (AQUA LAB Series 4TE (AQUA LAB)) was used to measure the water activity value of each pharmaceutical composition (including a capsule shell) at 25° C.
Pharmaceutical additives (5000 mg each) used in Examples 4 to 11 and Comparative Examples 1 to 2 were allowed to stand in bottles (30 mL) at 25° C. for 3 days in the presence of a desiccant (2 g), and the water activity value was measured under the same conditions as those of Experimental Example 1. Further, the same samples were allowed to stand in bottles under storage conditions of 25° C. and 60% RH (opened) for 3 days, and the water activity value was measured under the same conditions as those of Experimental Example 1
The difference between the water activity value after the storage in the opened state and the water activity value after the storage in the sealed state is summarized in Table 7.

[2] = Stability of mixture with milled lactose hydrate in capsules, sealed plastic bottles, 25° C. and 60% RH, related substance (HPLC); type: physicochemical; settings: dimer of compound A (RRT about 1.34)
Experimental: (§1) The amounts of generated related substances were measured by a high performance liquid chromatographic method (an HPLC method). The amount of a related substance is calculated by measuring the peak area of each related substance contained in a pharmaceutical composition by the HPLC method, and dividing the peak area of a dimer of compound A (a related substance detected at a relative retention time of about 1.34) by the total peak area of all related substances, including compound A or a pharmaceutically acceptable salt thereof and the dimer of compound A. • Measurement wavelength: 210 nm • Column: YMC-Triart C18 (4.6 mm×150 mm, 3 μm) • Column temperature: a constant temperature around 40° C. • Mobile phase: A mixed solution of 45 mM perchloric acid aqueous solution and acetonitrile • Flow rate: about 1.2 mL/min. • Injection amount: 10 μg (corresponding to compound A) (Measurement of Water Activity)
After 1.171 mg of compound A monomethanesulfonate and 98.829 mg of milled lactose hydrate (Pharmatose 200 M, DFE Pharma) were mixed, the obtained mixture was filled into hypromellose capsules. […] After the storage, the amount of a related substance (the amount of a dimer of compound A at a relative retention time of about 1.34) was measured under the same conditions as those of Experimental Example 1. […]

[3] = Stability of mixtures with pharmaceutical additives, sealed bottles in aluminum bags, 25° C. or 40° C., related substance (HPLC); type: physicochemical; settings: dimer of compound A (RRT about 1.34), N = 2, values less than 0.05% (quantitative limit) are reference values
Experimental: as §1
The mixtures obtained in Examples 4 to 11 and Comparative Examples 1 to 2, as well as compound A monomethanesulfonate, were put into plastic bottles. […] After the storage, the amount of a related substance (the amount of a dimer of compound A at a relative retention time of about 1.34) was measured under the same conditions as those of Experimental Example 1. […]

[4] = test system: epidermal growth factor receptor (EGFR) mutant kinase; settings: disclosed in Patent literature 1 (WO 2013/108754); cited from earlier work

| Compound | Water activity value, Opened [1] | Water activity value, Sealed [1] | Water activity value, Difference [1] | Amount of related substance, 25° C. · 60% RH After 1 month [2] [%] | Amount of related substance, 25° C., After 1 month ([3]; 25° C.) [%] | Amount of related substance, 40° C., After 1 month ([3]; 40° C.) [%] | inhibitory action on an epidermal growth factor receptor (EGFR) mutant kinase [4] |
| --- | --- | --- | --- | --- | --- | --- | --- |
| OC[C@@H](O)[C@@H](O)[C@H](O)[C@H](O)CO [Mannitol] | 0.45 | 0.35 | 0.10 | – | – | – | – |
| O.OC[C@H]1O[C@@H](O[C@H]2[C@H](O)[C@@H](O)C(O)O[C@@H]2CO)[C@H](O)[C@@H](O)[C@H]1O (stereo partly shown) [Lactose hydrate] | 0.46 | 0.30 | 0.16 | – | – | – | – |
| C=CC(=O)N1CC[C@@H](Oc2nc(Nc3ccc(N4CCC(N5CCN(C)CC5)CC4)cc3)c(C(N)=O)nc2CC)C1.CS(=O)(=O)O [Compound A monomethanesulfonate (alone), 5-{[(3R)-1-acryloylpyrrolidin-3-yl]oxy}-6-ethyl-3-({4-[4-(4-methylpiperazin-1-yl)piperidin-1-yl]phenyl}amino)-pyrazine-2-carboxamide monomethanesulfonate] | – | – | – | 0.44 | 0.03 | 0.03 | – |
| OC[C@H]1O[C@H](O[C@H]2O[C@H](CO)[C@@H](O)[C@H](O)[C@H]2O)[C@H](O)[C@@H](O)[C@@H]1O [Trehalose] | 0.40 | 0.32 | 0.08 | – | – | – | – |
| C=CC(=O)N1CC[C@@H](Oc2nc(Nc3ccc(N4CCC(N5CCN(C)CC5)CC4)cc3)c(C(N)=O)nc2CC)C1 [compound A, 5-{[(3R)-1-Acryloylpyrrolidin-3-yl]oxy}-6-ethyl-3-({4-[4-(4-methylpiperazin-1-yl)piperidin-1-yl]phenyl}amino)-pyrazine-2-carboxamide] | – | – | – | – | – | – | confirmed |
| OC[C@H]1O[C@@](CO)(O[C@H]2O[C@H](CO)[C@@H](O)[C@H](O)[C@H]2O)[C@@H](O)[C@@H]1O [Sucrose] | 0.43 | 0.38 | 0.05 | – | – | – | – |
